# Where two headings read alike, the source gives them in different places.
# Columns and labels:
# [1] = parameters: method as in PMID 17096093, PMID 18800204; settings: cited from earlier work
# [2] = Quantification of MADAM and metabolites in HLM incubations by UHPLC/Q-ToF-MS; format: in vitro ADME, human; settings: for Concentration in HLM incubation: MADAM 10 μM initial
# Protocol: (§1) MADAM and/or [^11C]MADAM (5–15 MBq) were incubated with HLM and RLM (0.5 mg/mL) at 37°C in 1 mL of 0.05 M potassium phosphate buffer (pH 7.4) containing 5 mM NADPH. Experiments were performed with MADAM concentrations of 1 and 10 μM. The incubation times were the following: […] (RLM experiments); 10, 45 and 90 min (HLM experiments). The incubation was stopped by adding an equal volume of ice-cold acetonitrile. The mixture was then vortexed and centrifuged and the supernatant was removed, evaporated. The residue was reconstituted in 150 μL mobile phase before being analyzed by radio-HPLC and UHPLC/Q-ToF-MS as described below. Control incubations in the absence of microsomes, MADAM or NADPH were also performed to assure that the observed peaks corresponded to MADAM metabolites.
# (§2) The analyses were performed on a Waters (Milford, MA, USA) Acquity Ultra Performance LC^TM binary solvent manager coupled to a photodiode array detector and Waters (Micromass UK Limited, Manchester, UK) Q-Tof Premier. All the samples (10 μL) were injected onto a Waters Ethylene Bridged Hybrid (BEH) C18 column (2.1 x 50 mm, 1.7 μm) and eluted by a 5 min linear gradient starting from 100% water containing 0.1% formic acid and ending with 30% acetonitrile containing 0.1% formic acid at a flow rate of 0.5 mL/min. Positive electrospray ionization (+ESI) in V-mode with an extended dynamic range was used under the following conditions: capillary 3.5 kV, sampling cone 25 V, extraction cone 4.5 V, source temperature 100°C and desolvation temperature 380°C. Two scan functions, MS and MS^E, in the mass range of 100–1000 Da, were performed simultaneously. The collision energy was set to 5 eV during the MS acquisition and it was ramped from 10 to 35 eV during the MS^E acquisition. MetaboLynx^TM (Waters, Milford, MA, USA) was used to aid metabolite identification.
# In the present study, we further aimed to estimate the concentration of the ligand (MADAM) as well as that of the identified metabolites, among them NHMADAM, SOMADAM and NHSOMADAM, for which reference compounds were available. UHPLC/Q-ToF-MS instrumentation was employed to quantify these compounds in RLM and HLM incubations using AFM as the internal standard. In HLM incubations, the concentration of MADAM decreased from 10 μM to 7.76 ± 0.5 μM at 30 min and approximately half of MADAM (5.1 ± 0.5 μM) was still present after an incubation time of 120 min. […] Negligible amounts of the other two metabolites, SOMADAM and NHSOMADAM, were detected at these times. The concentration of SOMADAM ranged from 0.12 ± 0.02 μM to 0.15 ± 0.01 μM over time. A very slight increase in the concentration of NHSOMADAM was observed, from 0.12 ± 0.01 μM to 0.32 ± 0.03 μM at 30 min and 120 min incubation times, respectively.
# [3] = Quantification of MADAM and metabolites in RLM incubations by UHPLC/Q-ToF-MS; format: in vitro ADME, rat; settings: for Concentration in RLM incubation / Concentration in RLM incubation (in words): MADAM 10 μM initial; for Concentration in RLM incubation (in words): various incubation times
# Protocol: as §1, §2
# The parent compound MADAM was present at a concentration of 1.83 ± 0.20 μM at 10 min and from 30 min the concentration was very low (0.17 to 0.09 μM), indicating a fast metabolism in RLM. […] However, the concentration of the latter declined to 2.08 ± 0.3 μM to at 10 min and to 0.72 ± 0.31 at 60 min. The quantification in HLM experiments was not undertaken after 120 min.
# [4] = parameters: method as in PMID 24857865; settings: rats euthanized 15 and 30 min post injection; cited from earlier work
# [5] = Incubation of [^11C]MADAM with human liver microsomes, radio-HPLC; format: in vitro ADME; settings: for Percentage of unchanged [^11C]MADAM: HLM 0.5 mg/mL, NADPH, no-carrier-added; for Intact [^11C]MADAM (%): HLM, t = 45 min
# Protocol: as §1
# (§3) Reversed phase HPLC was used to determine the percentages of radioactivity in microsomal incubation samples that corresponded to unchanged radioligand and its radiometabolites. The HPLC system consists of a Merck Hitachi D-7000 pump, an interface module, a Merck Hitachi L-7400 UV absorbance detector (254 nm) in series with a Packard Radiomatic 150TR radiodetector equipped with a 600 μL flow cell, and a Rheodyne 7125 manual injector. A Waters μ-Bondapak C18 column (7.8 x 300 mm, 10 μm) with acetonitrile (A) and ammonium formate 0.1M (B) as the mobile phase was used with a flow rate of 6.0 mL/min, according to the following gradient: 0–4.5 min, (A/B) 10/90-15/85; 4.5–5.0 min, (A/B) 15/85-20/80; 5.0–5.5 min (A/B) 20/80-45/55; 5.5–9.0 min (A/B) 45/55; 9.0–10 min (A/B) 45/55-70/30; 10.0–20.0 min (A/B) 70/30. The detected peaks were integrated and their areas were expressed as a percentage of the sum of areas of all radioactive compounds present (decay-corrected).
# [6] = Incubation of [^11C]MADAM with rat liver microsomes, radio-HPLC; format: in vitro ADME; settings: for Percentage of unchanged [^11C]MADAM: RLM 0.5 mg/mL, NADPH, no-carrier-added
# Protocol: as §1, §3
# [7] = Radio-HPLC of rat urine after intravenous perfusion of [^11C]MADAM/MADAM; format: in vivo; settings: for Percentage of intact [^11C]MADAM in urine: no carrier added
# Protocol: as §3
# All animal handling and experiments were carried out in accordance with the guidelines of Karolinska Institutet and were approved by the local laboratory animal ethics committee (N 363/05 and N 373/07). The rats were housed under standard laboratory conditions with free access to laboratory food and water ad libitum. Male Sprague-Dawley rats were anesthetized with isoflurane, via an E-Z anesthesia vaporizer (5% initially and then 1.5% to maintain anesthesia, blended with 7:3 air: O2 and delivered through a Microflex non-rebreathing mask from Euthanex Corporation, Palmer, PA. The rats were placed on a heating pad (37°C) while [^11C]MADAM (52–76 MBq) and/or MADAM (25 μg to 1 mg) as a perfusion were administered intravenously; the rats were sacrificed at various time points after the administration (15, 30 and 60 min). Urine samples were collected at each time point and acetonitrile (400 μL) was added. After centrifugation at 3000g for 4 min, the supernatant was injected into the radio-HPLC (section 2.3). The radioactivity of the precipitate was measured to quantify the efficiency of the acetonitrile extraction.
# [8] = parameters: method as in PMID 16157534; settings: 50 min after injection; cited from earlier work
# [9] = parameters: method as in earlier work; settings: human, 60 minutes after injection, cited from earlier work
# [10] = parameters: method as in PMID 24857865; settings: cited from earlier work; for Fraction of total radioactivity in plasma: macaque plasma
smiles,measurement,setting,value
"[11CH3]Oc1ccccc1O[C@@H](c1ccccc1)[C@@H]1CNCCO1 [(S,S)-[^11C]MeNER]",Effect of addition of carrier on radiometabolic profile,[1],not affect the radiometabolic profile
Cc1ccc(Sc2ccccc2CN(C)C)c(N)c1 [MADAM],Concentration in HLM incubation,[2]; incubation 30 min,7760 ± 500 nM
same,Concentration in HLM incubation,[2]; incubation 120 min,5100 ± 500 nM
same,Concentration in RLM incubation,[3]; incubation 10 min,1830 ± 200 nM
CNCc1ccccc1Sc1ccc(C)cc1N [NHMADAM],Concentration in HLM incubation,[2]; incubation 30 min,2080 ± 400 nM
same,Concentration in HLM incubation,[2]; incubation 120 min,2890 ± 400 nM
same,Concentration in RLM incubation,[3]; incubation 10 min,2080 ± 300 nM
same,Concentration in RLM incubation,[3]; incubation 60 min,720 ± 310 nM
CNCc1ccccc1[S+]([O-])c1ccc(C)cc1N (stereo not shown) [NHSOMADAM],Concentration in HLM incubation,[2]; incubation 30 min,120 ± 10 nM
same,Concentration in HLM incubation,[2]; incubation 120 min,320 ± 30 nM
same,Concentration in RLM incubation (in words),[3],very low concentrations
Cc1ccc(S(=O)(=O)c2ccccc2CN(C)C)c(N)c1 [SO2MADAM],Detection as metabolite of MADAM in microsomal preparations,"[2]; HLM, MADAM 10 μM",not detected
same,Detection as metabolite of MADAM in microsomal preparations,"[3]; RLM, MADAM 10 μM",not detected
Cc1ccc([S+]([O-])c2ccccc2CN(C)C)c(N)c1 (stereo not shown) [SOMADAM],Concentration in RLM incubation (in words),[3],very low concentrations
Cc1ccc(Sc2ccccc2CN(C)[11CH3])c(N)c1 [[^11C]MADAM],Radioactive species in rat brain by radio-HPLC,[4],only one radioactive peak corresponding to [^11C]MADAM
same,Percentage of unchanged [^11C]MADAM,[5]; incubation 10 min,51 ± 4%
same,Percentage of unchanged [^11C]MADAM,"[5]; incubation 10 min, listed as [ ^11 C]MADAM",51 ± 4%
same,Percentage of unchanged [^11C]MADAM,[5]; incubation 45 min,35 ± 1%
same,Percentage of unchanged [^11C]MADAM,"[5]; incubation 45 min, listed as [ ^11 C]MADAM",35 ± 1%
same,Percentage of unchanged [^11C]MADAM,[5]; incubation 90 min,16 ± 1%
same,Percentage of unchanged [^11C]MADAM,"[5]; incubation 90 min, listed as [ ^11 C]MADAM",16 ± 1%
same,Radiometabolites in control incubations,"[5]; HLM experiments, control without either NADPH or microsomes",No radiometabolites were detected
same,Intact [^11C]MADAM (%),[5]; carrier MADAM 1 μM,58 ± 2%
same,Intact [^11C]MADAM (%),[5]; carrier MADAM 10 μM,80 ± 5%
same,Percentage of unchanged [^11C]MADAM,[6]; incubation 1 min,3.3 ± 1%
same,Percentage of unchanged [^11C]MADAM,"[6]; incubation 1 min, listed as [ ^11 C]MADAM",3.3 ± 1% ^1
same,Percentage of unchanged [^11C]MADAM,[6]; incubation 4 min,no [^11C]MADAM was detected
same,Radiometabolites in control incubations,"[6]; RLM experiments, control without either NADPH or microsomes",No radiometabolites were detected
same,Intact [^11C]MADAM (%),"[6]; RLM, t = 1 min, carrier MADAM 10 μM",78 ± 4%
same,Radiometabolites by radio-HPLC or UHPLC/Q-ToF-MS,[7]; high dose of MADAM approximately 1 mg perfused,no radiometabolites were detected
same,Percentage of unchanged [^11C]MADAM in urine,"[7]; i.v. perfusion 15 min, carrier MADAM 25 μg",16%
same,Radiometabolites in urine,"[7]; i.v. perfusion 15 min, carrier MADAM 125 μg",no radiometabolites were observed
same,Percentage of intact [^11C]MADAM in urine,[7]; i.v. perfusion 15 min,9%
same,Percentage of intact [^11C]MADAM in urine,[7]; i.v. perfusion 30 min,undetectable
same,Percentage of intact [^11C]MADAM in urine,[7]; i.v. perfusion 60 min,undetectable
same,Radiometabolites in urine,"[7]; more than 25 μg carrier, perfusion time 30 and 60 min",no radiometabolites were detected
same,Percentage of unchanged radioligand in human plasma,[8],approximately 40%
Cc1ccc(C2CC3CCC(C2C(=O)O[11CH3])N3CC=CI)cc1 (stereo not shown) [[^11C]PE2I],Effect of addition of carrier on radiometabolic profile,[1],not affect the radiometabolic profile
[11CH3]N1CCc2cc(Cl)c(O)cc2C2c3ccccc3CCC21 (stereo not shown) [[^11C]SCH 39166],Percentage unchanged in plasma,[9]; high specific radioactivity,approximately 30%
same,Percentage unchanged in plasma,[9]; low specific radioactivity,~15%
Cc1ccc(S(=O)(=O)c2ccccc2CN(C)[11CH3])c(N)c1 [[^11C]SO2MADAM],Detection in plasma as further oxidation product,[10]; macaque plasma after injection of [^11C]MADAM,No further oxidation to [^11C]SO2MADAM was detected
Cc1ccc([S+]([O-])c2ccccc2CN(C)[11CH3])c(N)c1 (stereo not shown) [[^11C]SOMADAM],Fraction of total radioactivity in plasma,[10]; 4 min after injection of [^11C]MADAM,5%
same,Fraction of total radioactivity in plasma,[10]; 15 min after injection of [^11C]MADAM,1%
